Measurements: patent US6495576B2, “Aminal diones as potassium channel openers” (Abbott Laboratories, priority 2001, dated 2002)

How the values were obtained:
[1] = tested on: primary cultured guinea-pig urinary bladder (GPB) cells; experiment: Membrane hyperpolarization (MHP) assay, DiBAC(4)3 fluorescence on FLIPR; format: cell-based; conditions: for Maximal Response (%P1075): maximal steady-state hyperpolarization, normalized to response with 10 μM P1075 (100%); for EC50: Cavia porcellus, concentration eliciting 50% of the maximal response of the test sample
Protocol: Compounds were evaluated for potassium channel opening activity using primary cultured guinea-pig urinary bladder (GPB) cells.
For the preparation of urinary bladder smooth muscle cells, urinary bladders were removed from male guinea-pigs (Hartley, Charles River, Wilmington, Mass.) weighing 300-400 g and placed in ice-cold Ca^2+-free Krebs solution (composition, mM: KCl, 2.7, KH2PO4, 1.5; NaCl, 75, Na2HPO4, 9.6; Na2HPO4. 7H2O, 8; MgSO4, 2; glucose, 5; HEPES, 10; pH 7.4). Cells were isolated by enzymatic dissociation as previously described with minor modifications (Klockner and Isenberg, Pflugers Arch. (1985), 405, 329-339), hereby incorporated by reference. The bladder was cut into small sections and incubated in 5 mL of the Kreb's solution containing 1 mg/mL collagenase (Sigma, St. Louis, Mo.) and 0.2 mg/mL pronase (Calbiochem, La Jolla, Calif.) with continuous stirring in a cell incubator for 30 minutes. The mixture was then centrifuged at 1300×g for 5 minutes, and the pellet resuspended in Dulbecco's PBS (GIBCO, Gaithersburg, Md.) and recentrifuged to remove residual enzyme. The cell pellet was resuspended in 5 mL growth media (composition: Dulbecco's modified Eagle's medium supplemented with 10% fetal bovine serum, 100 units/mL penicillin, 100 units/mL streptomycin and […] amphotericin B) and further dissociated by pipetting the suspension through a flame-polished Pasteur pipette and passing it through a polypropylene mesh membrane (Spectrum, Houston, Tex.). The cell density was adjusted to 100,000 cells/mL by resuspension in growth media Cells were plated in clear-bottomed black 96-well plates (Packard) for membrane potential studies at a density of 20,000 cells/well and maintained in a cell incubator with 90% air: 10% CO2 until confluent. Cells were confirmed to be of smooth muscle type by cytoskeletal staining using a monoclonal mouse anti human-α-smooth muscle actin (Biomeda, Foster City, Calif.).
Functional activity at potassium channels was measured by evaluating changes in membrane potential using the bis-oxonol dye DiBAC(4)3 (Molecular Probes) in a 96-well cell-based kinetic assay system, Fluorescent Imaging Plate Reader (FLIPR) (K. S. Schroeder et al., J. Biomed. Screen., v. 1 pp. 75-81 (1996)), hereby incorporated by reference. DiBAC(4)3 is an anionic potentiometric probe which partitions between cells and extracellular solution in a membrane potential-dependent manner. With increasing membrane potential (for example, K^+ depolarization), the probe further partitions into the cell; this is measured as an increase in fluorescence due to dye interaction with intracellular lipids and proteins. Conversely, decreasing membrane potential (hyperpolarization by potassium channel openers) evokes a decrease in fluorescence.
Confluent guinea-pig urinary bladder cells cultured in black clear-bottomed 96-well plates were rinsed twice with […] assay buffer (composition, mM: HEPES, 20; NaCl, 120; KCl, 2; CaCl2, 2, MgCl2, 1, glucose, 5; pH 7.4 at 25° C.) containing 5 μM DiBAC(4)3 and incubated with […] of the buffer in a cell incubator for 30 minutes at 37° C. to ensure dye distribution across the membrane. After recording the baseline fluorescence for 5 minutes, the reference or test compounds, prepared at 10 times the concentration in the assay buffer, were added directly to the wells. Changes in fluorescence were monitored for an additional 25 minutes. Hyperpolarization responses were corrected for any background noise and were normalized to the response observed with 10 μM of the reference compound P1075 (assigned as 100%), a potent opener of smooth muscle KATP channels (Quast et al., Mol. Phanmacol., v. 43 pp. 474-481 (1993)).
Routinely, five concentrations of P1075 or test compounds (log or half-log dilutions) were evaluated and the maximal steady-state hyperpolarization values (expressed as % relative to P1075) plotted as a function of concentration. […]

[2] = tested on: Landrace pig bladder strips; experiment: Functional potassium channel opening activity in isolated, field-stimulated bladder strips; conditions: for Index: ED50 for P1075 divided by ED50 for test agonist in a given tissue, averaged; for EC50 / Emax: Sus scrofa; for EC50: amount causing 50% of the agent's maximal response, field stimulation 0.05 Hz, 0.5 ms, 20 volts, read-out: ED50 (the source's name); for Emax: maximal efficacy on stimulated twitch, relative to P1075
Protocol: Compound were evaluated for functional potassium channel opening activity using tissue strips obtained from Landrace pig bladders.
Landrace pig bladders were obtained from female Landrace pigs of 9-30 kg. Landrace pig were euthanized with an intraperitoneal injection of pentobarbital solution, Somlethal ®, J. A. Webster Inc. Sterling Mass. The entire bladder was removed and immediately placed into Krebs Ringer bicarbonate solution (composition, mM: NaCl, 120; NaHCO3, 20; dextrose, 11; KCl, 4.7; CaCl2, 2.5; MgSO4, 1.5; KH2PO4, 1.2; K2EDTA, 0.01, equilibrated with 5% CO2/95% O2 pH 7.4 at 37° C.). Propranolol (0.004 mM) was included in all of the assays to block β-adrenoceptors. The trigonal and dome portions were discarded. Strips 3-5 mm wide and 20 mm long were prepared from the remaining tissue cut in a circular fashion. The mucosal layer was removed. One end was fixed to a stationary glass rod and the other to a Grass FT03 transducer at a basal preload of 1.0 gram. Two parallel platinum electrodes were included in the stationary glass rod to provide field stimulation of 0.05 Hz, 0.5 milli-seconds at 20 volts. This low frequency stimulation produced a stable twitch response of 100-500 centigrams. Tissues were allowed to equilibrate for at least 60 minutes and primed with 80 mM KCl. A control concentration response curve (cumulative) was generated for each tissue using the potassium channel opener P1075 as the control agonist. […] After a 60 minute rinsing period, a concentration response curve (cumulative) was generated for the test agonist in the same fashion as that used for control agonist P1075. The maximal efficacy of each compound (expressed as % relative to P1075) is reported. The amount of agent necessary to cause 50% of the agent's maximal response (ED50) was calculated using “ALLFIT” (DeLean et al., Am. J. Physiol., 235, E97 (1980)), hereby incorporated by reference. Agonist potencies were also expressed as an index relative to P1075. The index was calculated by dividing the ED50 for P1075 by the ED50 for the test agonist in a given tissue. Each tissue was used for only one test agonist, and the indices obtained from each tissue were averaged to provide an average index of potency.

Compound	melting point [°C]	Maximal Response (%P1075) [1] [%P1075]	Index [2]	other results
Cc1ccc(C(=O)NC(Nc2c(Nc3cccnc3)c(=O)c2=O)C(C)(C)C)cc1 (centres unmarked) [Example 1, N-(1-{[3,4-Dioxo-2-(3-pyridinylamino)-1-cyclobuten-1-yl]amino}-2,2-dimethylpropyl)-4-methylbenzamide]		91	0.008	
CC(C)(C)C(NC(=O)c1ccc(Cl)cc1)Nc1c(Nc2cccnc2)c(=O)c1=O (centres unmarked) [Example 2, 4-Chloro-N-(1-{[3,4-dioxo-2-(3-pyridinylamino)-1-cyclobuten-1-yl]amino}-2,2-dimethylpropyl)benzamide]		108	0.047	
C=CCC(C)(C)C(NC(=O)c1ccc(Cl)cc1)Nc1c(Nc2cccnc2)c(=O)c1=O (centres unmarked) [Example 17, 4-Chloro-N-(-1-{[3,4-dioxo-2-(3-pyridinylamino)-1-cyclobuten-1-yl]amino}-2,2-dimethyl-4-pentenyl)benzamide]		96	0.028	
CC(C)(Cc1ccccc1)C(NC(=O)c1ccc(Cl)cc1)Nc1c(Nc2cccnc2)c(=O)c1=O (centres unmarked) [Example 18, 4-Chloro-N-(-1-{[3,4-dioxo-2-(3-pyridinylamino)-1-cyclobuten-1-yl]amino}-2,2-dimethyl-3-phenylpropyl)benzamide]		97	0.055	EC50 [1]: 510 nM; EC50 [2]: 17000 nM; Emax [2]: 62%
CCC(CC)(CCC#N)C(NC(=O)c1ccc(Cl)cc1)Nc1c(Nc2cccnc2)c(=O)c1=O (centres unmarked) [Example 19, 4-Chloro-N-(4-cyano-1-{[3,4-dioxo-2-(3-pyridinylamino)-1-cyclobuten-1-yl]amino}-2,2-diethylbutyl)benzamide]		<20		
C=CCOCC(CC)(COCC=C)C(NC(=O)c1ccc(Cl)cc1)Nc1c(Nc2cccnc2)c(=O)c1=O (centres unmarked) [Example 20, N-(2,2-Bis[(allyloxy)methyl]-1-{[3,4-dioxo-2-(3-pyridinylamino)-1-cyclobuten-1-yl]amino}butyl)-4-chlorobenzamide]		98		
Cc1cccc(C(=O)NC(Nc2c(Nc3cccnc3)c(=O)c2=O)C(C)(C)Cc2ccccc2)c1 (centres unmarked) [Example 60, N-(1-{[3,4-Dioxo-2-(3-pyridinylamino)-1-cyclobuten-1-yl]amino}-2,2-dimethyl-3-phenylpropyl)-3-methylbenzamide]		83	0.87	EC50 [1]: 93 nM; EC50 [2]: 680 nM; Emax [2]: 88%

Second part, led by results:

melting point [°C]	Compound	Maximal Response (%P1075) [1] [%P1075]	Index [2]	other results
215 to 216	CC(C)(C)C(NC(=O)c1cc(F)cc(F)c1)Nc1c(Nc2cccnc2Cl)c(=O)c1=O (single isomer, unassigned; (+)) [Example 110, (+) N-(1-{[3,4-Dioxo-2-(2-chloro3-pyridinylamino)-1-cyclobuten-1-yl]amino}-2,2-dimethylpropyl)-3,5-difluorobenzamide]			
177 to 178	CC(C)(C)C(NC(=O)c1ccc(I)cc1)NS(=O)(=O)Nc1cccnc1 (centres unmarked) [Example 34, N-(2,2-Dimethyl-1-{[(3-pyridinylamino)sulfonyl]amino}propyl)-4-iodobenzamide]			
233 to 234	CC(C)(C)C(NC(=O)c1cc(Cl)cc(Cl)c1)Nc1c(Nc2cncc(C(F)(F)F)c2)c(=O)c1=O (centres unmarked) [Example 53, 3,5-Dichloro-N-{1-[(3,4-dioxo-2-{[5-(trifluoromethyl)pyridin-3-yl]amino}-1-cyclobuten-1-yl)amino]-2,2-dimethylpropyl}benzamide]			
224 to 226	COc1ncccc1Nc1c(NC(NC(=O)c2cccc(C)c2)C(C)(C)C)c(=O)c1=O (centres unmarked) [Example 81, N-[1-({2-[(2-Methoxypyridin-3-yl)amino]3,4-dioxo-1-cyclobuten-1-yl}amino)-2,2-dimethylpropyl]-3-methylbenzamide]			
221 to 223	COc1ncccc1Nc1c(NC(NC(=O)c2cc(F)cc(F)c2)C(C)(C)C)c(=O)c1=O (centres unmarked) [Example 82, 3,5-Difluoro-N-[1-({2-[(2-methoxypyridin-3-yl)amino]-3,4-dioxo-1-cyclobuten-1-yl}amino)-2,2-dimethylpropyl]benzamide]			
233 to 235	COc1ncccc1Nc1c(NC(NC(=O)c2cccc(C)c2)C(C)(C)Cc2ccccc2)c(=O)c1=O (centres unmarked) [Example 83, N-[1-({2-[(2-Methoxypyridin-3-yl)amino]-3,4-dioxo-1-cyclobuten-1-yl}amino)-2,2-dimethyl-3-phenylpropyl]-3-methylbenzamide]			
213 to 214	CC(C)(C)C(NC(=O)c1cccc(Cl)c1)Nc1c(Nc2cccnc2Cl)c(=O)c1=O (centres unmarked) [Example 95, 3-Chloro-N-[1-({2-[(2-chloropyridin-3-yl)amino]-3,4-dioxo-1-cyclobuten-1-yl}amino)-2,2-dimethylpropyl]benzamide]			
215 to 217	CC(C)(C)C(NC(=O)c1cc(F)cc(F)c1)Nc1c(Nc2cccnc2Cl)c(=O)c1=O (centres unmarked) [Example 110A, N-(1-{[3,4-Dioxo-2-(2-chloro3-pyridinylamino)-1-cyclobuten-1-yl]amino}-2,2-dimethylpropyl)-3,5-difluorobenzamide]			
